In publication PMC3608651, “A Broad Profile of Co-Dominant Epitopes Shapes the Peripheral Mycobacterium tuberculosis Specific CD8+ T-Cell Immune Response in South African Patients with Active Tuberculosis” (PLoS ONE, 2013):

How the values were obtained:
Type in all cases: binding
HLA-A*30:02 = HLA-A*30:02 (Homo sapiens, UniProt P04439, D101N/D140H/D185E/E176R/F33S/G80R/H175R/K168Q/Q94H/R138E/R41S/V100E); conditions: percent relative the binding of positive control peptide […]; duplicated experiments; positive binder >40%
HLA-B*58:01 = HLA-B*58:01 (Homo sapiens, UniProt P01889, A329T/C349S/D201E/D98Y/E176V/E187L/E204Q/E69T/G107R/I218V/I90N/K202T/L105A/L119I/N104I/N87E/Q89R/Q94S/R106L/R155S/R180L/R86G/S101N/S121R/S35A/S48A/T118I/V127L/V306I/V36M/Y140S/Y91M); conditions: percent relative the binding of positive control peptide […]; duplicated experiments; positive binder >40%
HLA-A*30:01 = HLA-A*30:01 (Homo sapiens, UniProt P04439, D140H/D185E/E176W/F33S/G80R/H175R/K168Q/R138E/R41S); conditions: percent relative the binding of positive control peptide […]; duplicated experiments; positive binder >40%
HLA-A*68:01 = HLA-A*68:01 (Homo sapiens, UniProt P04439, A269V/D185E/E176V/E277Q/E87N/F33Y/G231S/I121M/I166T/I218V/L180W/L300P/L318F/N151K/P208A/P217A/Q86R/R169H/T345S); conditions: percent relative the binding of positive control peptide […]; duplicated experiments; positive binder >40%
HLA-C*07:01 = HLA-C*07:01 (Homo sapiens, UniProt P10321, K90N/S123Y); conditions: percent relative the binding of positive control peptide […]; duplicated experiments; positive binder >40%
HLA-A*02:01 = HLA-A*02:01 (Homo sapiens, UniProt P04439, D140Y/D185E/D98H/E176V/E277Q/G131W/G231S/I119V/I121R/I166T/I218V/L300P/L318F/N151K/N90K/P208A/P217A/Q86G/Q94H/R138H/R169H/T345S); conditions: percent relative the binding of positive control peptide […]; plate-bound monomer 0.5 µg/ml; duplicated experiments; positive binder >40%
HLA-B*07:02 = HLA-B*07:02 (Homo sapiens, UniProt P01889); conditions: percent relative the binding of positive control peptide […]; duplicated experiments; positive binder >40%
HLA-A*24:02 = HLA-A*24:02 (Homo sapiens, UniProt P04439, D101N/D140Y/D185E/E176V/E190D/F33S/G103R/G107R/I119L/I121M/I306V/K335N/L105A/L180Q/L300P/N151K/N90K/Q86E/Q94H/R106L/R138H/R89G/T104I/T345S/V100E/W191G/Y123F); conditions: percent relative the binding of positive control peptide […]; duplicated experiments; positive binder >40%

Row | Sequence | Bind A*30:02 (HLA-A*30:02) | Bind B*58:01 (HLA-B*58:01) | Bind A*30:01 (HLA-A*30:01) | Bind A*68:01 (HLA-A*68:01) | Bind C*07:01 (HLA-C*07:01) | Bind A*02:01 (HLA-A*02:01) | Bind B*07:02 (HLA-B*07:02) | Bind A*24:02 (HLA-A*24:02)
1 | GKAGCQTYK | 58% | 22% | 34% | 72% | 0% | 33% | 9% | 19%
2 | GLSMAGSSA | 0% | 0% | 0% | 0% | 0% | 75% | 31% | 0%
3 | GMGPSLIGL | 46% | 9% | 16% | 0% | 35% | 84% | 5% | 53%
4 | GNNSPAVYL | 0% | 0% | 0% | 3% | 51% | 0% | 0% | 6%
5 | GPSLIGLAM | 0% | 18% | 0% | 6% | 0% | 11% | 85% | 0%
6 | GSAAIGLSM | 9% | 38% | 0% | 5% | 66% | 31% | 38% | 7%
7 | GSSAMILAA | 0% | 29% | 0% | 4% | 8% | 66% | 5% | 0%
8 | GTPNELGGA | 0% | 0% | 0% | 0% | 0% | 49% | 0% | 0%
9 | ILAAYHPQQ | 45% | 30% | 1% | 0% | 1% | 57% | 1% | 0%
10 | IPAEFLENF | 0% | 0% | 0% | 0% | 2% | 17% | 47% | 48%
11 | IPKLVANNT | 0% | 16% | 5% | 0% | 0% | 0% | 41% | 0%
12 | IVMPVGGQS | 56% | 0% | 0% | 0% | 0% | 44% | 51% | 0%
13 | KGDLQSSLG | 13% | 0% | 20% | 40% | 25% | 10% | 6% | 4%
14 | KPTGSAAIG | 0% | 0% | 0% | 0% | 0% | 0% | 51% | 0%
15 | LAMGDAGGY | 74% | 39% | 0% | 56% | 0% | 10% | 2% | 0%
16 | LDPSQGMGP | 0% | 12% | 32% | 0% | 18% | 41% | 43% | 12%
